Assay type in all cases: cell-based, bovine
Data set [1] deals with mammary epithelial cells (MECs). Description: Lipids / lipid metabolites released to the culture medium of MECs. Particulars: 1 μM/ml LXRa with OA. The method, then: (§1) Total lipids were extracted from the intact cells by NP-40 and from media by cold-extraction procedure developed by Folch et al. with few adaptations. Briefly, a 5-ml aliquot of methanol: chloroform solution (2:1, v/v) was added to each sample. After incubation at room temperature, 1 ml of double-distilled water was added. After overnight incubation at 4° C., the upper phase was discarded, and the lower phase was filtered through a Pasteur pipette with glass wool. Samples were then dried under a nitrogen stream at 65° C., diluted in 100 μl 0.5% NP-40. Of note, lipid metabolites are measured by Cobas measurement, which is a parameter for lipid activity but measures also glycerol, the plate assay on the other hand measures TGs specifically while eliminating the glycerol background. After treatment, medium was collected and centrifuged at 500 g for 10 min. The supernatant was transferred to a fresh tube and kept at 4° C. until analysis. Medium triglyceride content was quantified with a Triglyceride Quantification Kit (lipase assay Abcam, Cambridge, UK). Quantification was performed against external standard curves and expressed as μg/10∧6 live cells. Live cell number was determined with a hemocytometer after Trypan blue staining.

The test system is the same in data set [2]. Description: Cell viability and morphology of MECs under oleic acid with or without LXRa. The method, then: 1. Oleic acid treatment: Oleic acid was added to the induction medium at […] final concentration. Treatment was carried for 1 up to 7 days.
2. […] LXRa was added into the media with or without Oleic acid. Two LXR agonists were tested: GW3965 (LXR1, SIGMA) and T0901317 (LXR2, SIGMA), each at a concentration of luM/ml for at least overnight (ON) incubation. The OA was added after cells reached the confluency of at least 80%.
The analysis was done for the presence of 360 μM OA or 1100 μM OA with or without LXRa (TO901317).

The test system is the same in data set [3]. Description: Intracellular triglycerides (TGs) in MECs, plate assay. On the procedure:
as §1, with “1. Oleic acid treatment: Oleic acid was added to the induction medium at […] final concentration. Treatment was carried for 1 up to 7 days. 2. […] LXRa was added into the media with or without Oleic acid. Two LXR agonists were tested: GW3965 (LXR1, SIGMA) and T0901317 (LXR2, SIGMA), each at a concentration of luM/ml for at least overnight (ON) incubation. The OA was added after cells reached the confluency of at least 80%. After treatment, cells were harvested with trypsin (0.05%), washed with 0.9% (w/v) NaCl and stored at −20° C. until lipid extraction. Total” for “Total”

The test system of data set [4] is LXR downstream genes: SREBP1, FASN, SLC25A1 and SQLE. Description: RT-PCR expression of LXR downstream lipid metabolism genes in MECs after overnight LXR agonist incubation. Particulars: OA incubation of MECs. The method, then: A primary culture of MEC was isolated from mammary biopsies. Briefly, udder tissue was collected from lactating cows in a commercial slaughterhouse and immediately submerged in ice-cold growth medium, DMEM-F12, with 1000 U/ml penicillin, 1 mg/ml streptomycin, 2.5 μg/ml amphotericin B mixture, and 0.02 mg/ml heparin supplementation to prevent cell clotting after digestion. Study protocols followed the regulations of the Israeli Ministry of Health. Cells were grown in plastic culture dishes with DMEM/F12 supplemented with 10% (w/v) FBS, 100 U/ml penicillin, 100 μg/ml streptomycin, 0.25 μg/ml amphotericin B supplemented with insulin (1 μg/ml), hydrocortisone (0.5 μg/ml) and prolactin (1 μg/ml). 2. […] LXRa was added into the media with or without Oleic acid. Two LXR agonists were tested: GW3965 (LXR1, SIGMA) and T0901317 (LXR2, SIGMA), each at a concentration of luM/ml for at least overnight (ON) incubation. The OA was added after cells reached the confluency of at least 80%. Cells were harvested using the […] reagent and pellet was collected by centrifugation of 3 min in 300 rcf. RNA was extracted from 1×10^6 cells using NzytechTM total RNA isolation kit (MB13402). cDNA was prepared using SensiFastTM cDNA kit (0.5μgr RNA/20 μl reaction mix). RT-PCR was done with the following primers by using SensiFastTM RT-PCR kit with 1.25-20 ng cDNA/well. [table] […]

On to `O=S(=O)(c1ccccc1)N(CC(F)(F)F)c1ccc(C(O)(C(F)(F)F)C(F)(F)F)cc1` [LXRa, T0901317], for which the “Lipids release to the medium” value in data set [1] was “release lipids to the medium”. In addition, in data set [2] (LXRa 1 μM/ml TO901317, 360 μM or 1100 μM OA), the “Effect of LXRa on oleic acid toxicity (cells viability and morphology)” value is “ameliorates the negative effect”. The “Higher intracellular TGs levels vs OA only” value in data set [3] (360 μM OA treatment, LXRa 1 μl/ml) is 60%. For the same molecule, the “Delta triglycerides (TGs) levels inside cells with vs without LXRa” value in data set [3] (FIG. 3) was “similar”. Besides, the “Effect of LXR agonist on intracellular TGs” value in data set [3] (OA concentrations higher than 360 μM) is on record as “not observed”.

As for `CCCCCCCC/C=C\CCCCCCCC(=O)O` [Oleic acid, oleic acid], the “Effect on LXR dependent gene expression of lipid metabolism” value in data set [4] was “no effect”. In data set [2] (oleic acid above 300 μM or longer than one day), the “Effect on cells viability” value is listed as “negative effect”.

The values above are taken from patent publication US20250305010A1, “LIPID COMPOSITIONS AND METHODS OF PRODUCING SAME” (Wilk Technologies International Ltd., priority 2022, published 2025).
